Values of other authors in paper PMC10694761 (Cell Reports Medicine, 2023).

Key:
[1] = rats
[2] = humans
[3] = micromolar concentrations

half-life of absorption from the s.c. space (t1/2, s.c.) [1]: ~9.6 min
half-life of elimination from the systemic circulation (t1/2, serum) [1]: ~4.01 h
t1/2, serum [2]: ~13 h
self-association state [3]: heptameric structures
Substance: Liraglutide
